From paper PMC8952364, “Polyphenols as Inhibitors of Antibiotic Resistant Bacteria—Mechanisms Underlying Rutin Interference with Bacterial Virulence” (Pharmaceuticals, 2022)
Values after ≈ are worked out from the molar mass of the structure shown. Read-outs that look alike come from different tables or passages of the source.

Tests used:
[1] = system: Methicillin resistant S. aureus IBRS MRSA 011; assay: Antimicrobial microdilution assay (MIC/MBC); assay type: cell-based, Staphylococcus aureus; settings: Staphylococcus aureus, MRSA; for MIC: read-out: MIC; for MBC: subcultivation, 24 h at 37 °C, read-out: MBC
Method: (§1) The bacterial suspension (0.5 Mc Farland) was prepared, and twenty-fold dilutions of these suspensions were mixed in a 1:10 ratio with the corresponding polyphenol dilution (0.0039–1 mg/mL). Microtiter plates were incubated at 37 °C for 24 h. The lowest concentrations without visible growth (under a binocular microscope) were defined as MICs. The bactericidal concentrations (MBCs) were determined by serial subcultivation of 2 μL of the well’s content and further incubation for 24 h at 37 °C. Streptomycin (SigmaAldrich, Darmstadt, Germany) was used as a positive control. The polyphenols were obtained from Extrasynthese, Rhone, France (rutin, isoquercitrin) and SigmaAldrich, Germany (hesperetin, hesperidin, naringenin, naringin, taxifolin, morin, chlorogenic acid, ferulic acid, p-coumaric acid, and gallic acid). The stock compounds were prepared in ethanol (30%), and adequate ethanol concentrations were used as the negative control in the assays. Experiments were done in triplicate.

P. aeruginosa IBRS P001 = assay: Antimicrobial microdilution assay (MIC/MBC); assay type: cell-based, Pseudomonas aeruginosa; settings: Pseudomonas aeruginosa, IBRSP001; for MIC: 37 °C, 24 h, read-out: MIC; for MBC: subcultivation, 24 h at 37 °C, read-out: MBC
Method: as §1

P. aeruginosa MMA83 = assay: Antimicrobial microdilution assay (MIC/MBC); assay type: cell-based, Pseudomonas aeruginosa; settings: Pseudomonas aeruginosa, MMA83; for MIC: 37 °C, 24 h, read-out: MIC; for MBC: subcultivation, 24 h at 37 °C, read-out: MBC
Method: as §1

E. coli IBRS E003 = assay: Antimicrobial microdilution assay (MIC/MBC); assay type: cell-based, Escherichia coli; settings: Escherichia coli, IBRSE003; for MIC: 37 °C, 24 h, read-out: MIC; for MBC: subcultivation, 24 h at 37 °C, read-out: MBC
Method: as §1

E. coli IMD989 = assay: Antimicrobial microdilution assay (MIC/MBC); assay type: cell-based, Escherichia coli; settings: Escherichia coli, IMD989; for MIC: 37 °C, 24 h, read-out: MIC; for MBC: subcultivation, 24 h at 37 °C, read-out: MBC
Method: as §1

A. baumannii 6077/12 = assay: Antimicrobial microdilution assay (MIC/MBC); assay type: cell-based, Acinetobacter baumannii; settings: Acinetobacter baumannii, 6077/12; for MIC: 37 °C, 24 h, read-out: MIC; for MBC: subcultivation, 24 h at 37 °C, read-out: MBC
Method: as §1

A. baumannii S2/2 = assay: Antimicrobial microdilution assay (MIC/MBC); assay type: cell-based, Acinetobacter baumannii; settings: Acinetobacter baumannii, S2/2; for MIC: 37 °C, 24 h, read-out: MIC; for MBC: subcultivation, 24 h at 37 °C, read-out: MBC
Method: as §1

K. pneumoniae IT977 = assay: Antimicrobial microdilution assay (MIC/MBC); assay type: cell-based, Klebsiella pneumoniae; settings: Klebsiella pneumoniae, IT977; for MIC: 37 °C, 24 h, read-out: MIC; for MBC: subcultivation, 24 h at 37 °C, read-out: MBC
Method: as §1

K. pneumoniae Ni9 = assay: Antimicrobial microdilution assay (MIC/MBC); assay type: cell-based, Klebsiella pneumoniae; settings: Klebsiella pneumoniae, NI9; for MIC: 37 °C, 24 h, read-out: MIC; for MBC: subcultivation, 24 h at 37 °C, read-out: MBC
Method: as §1

A. xylosoxidans 37F = assay: Antimicrobial microdilution assay (MIC/MBC); assay type: cell-based, Achromobacter xylosoxidans; settings: Achromobacter xylosoxidans, 37F; for MIC: 37 °C, 24 h, read-out: MIC; for MBC: subcultivation, 24 h at 37 °C, read-out: MBC
Method: as §1

S. infantis 1371/1 = assay: Antimicrobial microdilution assay (MIC/MBC); assay type: cell-based, Salmonella Infantis; settings: Salmonella enterica, 1371/1; for MIC: 37 °C, 24 h, read-out: MIC; for MBC: subcultivation, 24 h at 37 °C, read-out: MBC
Method: as §1

[2] = system: P. aeruginosa IBRS P001 biofilm; assay: Crystal violet antibiofilm assay (biofilm formation); assay type: cell-based, Pseudomonas aeruginosa; settings: MIC and sub-MIC, 24 h, crystal violet, Figure 1
Method: After incubation, each well was washed twice with sterile PBS (phosphate-buffered saline, pH 7.4) and fixed with methanol for 10 min. After removal of methanol the plate was air-dried. The biofilm was stained with 0.1% crystal violet (Bio-Merieux, Marcy l’Etoile, France) for 30 min. The plate was washed with water, air dried, and the stain was dissolved with 200 μL of 96% ethanol (Zorka, Sabac, Serbia). The absorbance was read at 620 nm on a Multiskan™ FC microplate photometer (Thermo Scientific™, Waltham, MA, USA). The results are presented as biofilm forming capacity (%) compared to control.

HaCaT cells = assay: Cytotoxicity in HaCaT cell line (crystal violet assay); assay type: cell-based, human; settings: Homo sapiens, HaCaT, read-out: IC50 (compound concentration that inhibited 50% of the cell growth)
Method: For determination of the polyphenols’ cytotoxic effect, a crystal violet assay was used, with modifications. The cytotoxic effect of polyphenols was analyzed on spontaneously immortalized human skin keratinocytes (HaCaT, AddexBio No. T0020001, San Diego, CA, USA) cell lines. […] Cells (1 × 10^4 cells/well) were seeded in a 96-well plate (Sarstedt, Nümbrecht, Germany) 24 h before treatment. […] Cells were incubated with the compounds for 24 h. […] After crystal violet was removed, the plates were washed in a stream of tap water and left to air-dry at room temperature for 24 h. The absorbance was measured in a microplate reader (Multiskan™ FC Microplate Photometer, Thermo Scientific™) at 590 nm. The results were expressed as IC50 value in μg/mL. The criterion used to categorize the cytotoxic activity polyphenols was as follows: […] All analyses were performed in triplicate; each replicate was also quantified three times. Data were expressed as mean standard deviation, where applicable.

[3] = system: eleven antibiotic resistant strains of bacteria; assay: Antimicrobial assay, summary over the examined strains; assay type: cell-based; settings: antibiotic resistant strains of Table 1; read-out: lowest MIC among the examined strains
Method: as §1

[4] = system: S. aureus Newman and S. aureus Newman Δcoa; set-up: method as in PMID 32130467; settings: cited from earlier work
[5] = system: S. aureus clinical isolate; set-up: method as in doi:10.5937/leksir2040057K; settings: cited from earlier work
S. aureus ATCC 11632 = system: S. aureus ATCC 11632; set-up: method as in doi:10.5937/leksir2040057K; settings: cited from earlier work
MRSA T144 = system: MRSA T144; set-up: method as in PMID 31385700; settings: cited from earlier work

| Compound | MIC ([1]; 37 °C, 24 h) [µg/mL] | MBC [1] [µg/mL] | MIC (P. aeruginosa IBRS P001) [µg/mL] | MBC (P. aeruginosa IBRS P001) [µg/mL] | MIC (P. aeruginosa MMA83) [µg/mL] | MBC (P. aeruginosa MMA83) [µg/mL] | MIC (E. coli IBRS E003) [µg/mL] | MBC (E. coli IBRS E003) [µg/mL] | MIC (E. coli IMD989) [µg/mL] | MBC (E. coli IMD989) [µg/mL] | MIC (A. baumannii 6077/12) [µg/mL] | MBC (A. baumannii 6077/12) [µg/mL] | MIC (A. baumannii S2/2) [µg/mL] | MBC (A. baumannii S2/2) [µg/mL] | MIC (K. pneumoniae IT977) [µg/mL] | MBC (K. pneumoniae IT977) [µg/mL] | MIC (K. pneumoniae Ni9) [µg/mL] | MBC (K. pneumoniae Ni9) [µg/mL] | MIC (A. xylosoxidans 37F) [µg/mL] | MBC (A. xylosoxidans 37F) [µg/mL] | other results |
| --- | --- | --- | --- | --- | --- | --- | --- | --- | --- | --- | --- | --- | --- | --- | --- | --- | --- | --- | --- | --- | --- |
| O=c1c(O[C@@H]2O[C@H](CO)[C@@H](O)[C@H](O)[C@H]2O)c(-c2ccc(O)c(O)c2)oc2cc(O)cc(O)c12 [Isoquercitrin, isoquercitrin] | 500 (≈ 1080 µM) | 1000 (≈ 2150 µM) | 250 (≈ 538 µM) | 500 (≈ 1080 µM) | 250 (≈ 538 µM) | 250 (≈ 538 µM) | > 1000 | > 1000 | 1000 (≈ 2150 µM) | 1000 (≈ 2150 µM) | 250 (≈ 538 µM) | 500 (≈ 1080 µM) | 500 (≈ 1080 µM) | 500 (≈ 1080 µM) | 1000 (≈ 2150 µM) | 1000 (≈ 2150 µM) | 500 (≈ 1080 µM) | 1000 (≈ 2150 µM) | 500 (≈ 1080 µM) | 500 (≈ 1080 µM) | MIC (S. infantis 1371/1): 1000 µg/mL (≈ 2150 µM); MBC (S. infantis 1371/1): 1000 µg/mL (≈ 2150 µM); reduction of biofilm formation (biomass), in words [2]: promising (***, p ≤ 0.001) potential to reduce the biomass; IC50 (HaCaT cells; 24 h): > 1000 µg/mL; MIC [3]: 250 µg/mL (≈ 538 µM); MIC (no inhibitory activity up to) [4]: > 1024 µg/mL; MIC [5]: 200 µg/mL (≈ 431 µM); MIC (S. aureus ATCC 11632): 100 µg/mL (≈ 215 µM) |
| O=c1c(O)c(-c2ccc(O)cc2O)oc2cc(O)cc(O)c12 [Morin, morin] | 120 (≈ 397 µM) | 250 (≈ 827 µM) | 120 (≈ 397 µM) | 250 (≈ 827 µM) | 1000 (≈ 3310 µM) | 1000 (≈ 3310 µM) | 250 (≈ 827 µM) | 500 (≈ 1650 µM) | > 1000 | > 1000 | 500 (≈ 1650 µM) | 500 (≈ 1650 µM) | 500 (≈ 1650 µM) | 500 (≈ 1650 µM) | > 1000 | > 1000 | 500 (≈ 1650 µM) | 1000 (≈ 3310 µM) | 500 (≈ 1650 µM) | 1000 (≈ 3310 µM) | MIC ([1]; restated in the discussion): 125 µg/mL (≈ 414 µM); MIC (S. infantis 1371/1): > 1000 µg/mL; MBC (S. infantis 1371/1): > 1000 µg/mL; IC50 (HaCaT cells; 24 h treatment, crystal violet): 347 ± 16 µg/mL (≈ 1150 µM); MIC (MRSA T144): 32 µg/mL (≈ 106 µM) |
